Format in all cases: in vivo
What all share (details): evaluated after 13 days

Experiment [1] deals with Setaria faberi (SETFA). In words: Pre-emergence Test, Setaria faberi (SETFA).
Experiment [2] concerns Echinochloa crus-galli (ECHCG). Put plainly: Pre-emergence Test, Echinochloa crus-galli (ECHCG).
Experiment [3] relates to Zea mays (ZEAMX). Put plainly: Pre-emergence Test, Zea mays (ZEAMX).
The subject of experiment [4] is Ipomoea hederacea (IPOHE). In words: Pre-emergence Test, Ipomoea hederacea (IPOHE).
In experiment [5] the test system is Amaranthus palmeri (AMAPA). Put plainly: Pre-emergence Test, Amaranthus palmeri (AMAPA).
Experiment [6] concerns Amaranthus retoflexus (AMARE). In words: Pre-emergence Test, Amaranthus retoflexus (AMARE).
Experiment [7] has as its system Setaria faberi (SETFA). Put plainly: Post-emergence Test, Setaria faberi (SETFA). Details: key to percentage damage caused to the plant, SETFA (five-point scale): 5=81-100%, 4=61-80%, 3=41-60%, 2=21-40%, 1=0-20% damage. The essentials:
(§1)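 Tested at 1000 g/ha unless otherwise stated. Plants were held at 24/16 °C day/night with a 14 h light period. Percent damage was read at 13 days and reported in five bands.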

Experiment [8] has as its system Echinochloa crus-galli (ECHCG). In words: Post-emergence Test, Echinochloa crus-galli (ECHCG). Set-up: key to percentage damage caused to the plant, ECHCG (five-point scale): 5=81-100%, 4=61-80%, 3=41-60%, 2=21-40%, 1=0-20% damage. A digest of the protocol: as §1
Experiment [9] relates to Zea mays (ZEAMX). Put plainly: Post-emergence Test, Zea mays (ZEAMX). Set-up: key to percentage damage caused to the plant, ZEAMX (five-point scale): 5=81-100%, 4=61-80%, 3=41-60%, 2=21-40%, 1=0-20% damage. The essentials:
as §1

In experiment [10] the test system is Ipomoea hederacea (IPOHE). In words: Post-emergence Test, Ipomoea hederacea (IPOHE). Details: key to percentage damage caused to the plant, IPOHE (five-point scale): 5=81-100%, 4=61-80%, 3=41-60%, 2=21-40%, 1=0-20% damage. A digest of the protocol: as §1
The subject of experiment [11] is Amaranthus palmeri (AMAPA). Put plainly: Post-emergence Test, Amaranthus palmeri (AMAPA). Set-up: key: 5=81-100%, 4=61-80%, 3=41-60%, 2=21-40%, 1=0-20% damage. The essentials:
as §1

The subject of experiment [12] is Amaranthus retoflexus (AMARE). Put plainly: Post-emergence Test, Amaranthus retoflexus (AMARE). Set-up: key to percentage damage caused to the plant, AMARE (five-point scale): 5=81-100%, 4=61-80%, 3=41-60%, 2=21-40%, 1=0-20% damage. The essentials:
as §1

The values that follow come from patent US20250098679A1, “HERBICIDAL PYRIDONE DERIVATIVES” (SYNGENTA CROP PROTECTION AG, priority 2021, published 2025).

SMILES strings stand for the structures.

`CCOC(=O)c1c(-c2ccc(Cl)c(Cl)c2)n(CC)c(Cn2ccc(C(F)(F)F)n2)cc1=O` [Compound 1, ethyl 2-(3,4-dichlorophenyl)-1-ethyl-4-oxo-6-[[3-(trifluoromethyl)pyrazol-1-yl]methyl]pyridine-3-carboxylate]: the “Pre-emergence Test SETFA, percentage damage caused to the plant (five-point scale)” value in the experiment with Setaria faberi (SETFA) [1] (250 g/Ha (*)) and in the experiment on Setaria faberi (SETFA) [1] (1000 g/ha) was 4 (4=61-80%) in each case. In addition, the “Pre-emergence Test ECHCG, percentage damage caused to the plant (five-point scale)” value in experiment [2] (250 g/Ha (*)) is reported as 2 (2=21-40%); in experiment [2] (1000 g/ha), 3 (3=41-60%). In addition, the “Pre-emergence Test ZEAMX, percentage damage caused to the plant (five-point scale)” value in the experiment on Zea mays (ZEAMX) [3] (250 g/Ha (*)) and with Zea mays (ZEAMX) [3] (1000 g/ha) was 0 throughout. Further, the “Pre-emergence Test IPOHE, percentage damage caused to the plant (five-point scale)” value in experiment [4] (250 g/Ha (*)) and in experiment [4] (1000 g/ha) was 0 in each case. Also, the “Pre-emergence Test AMAPA, percentage damage caused to the plant (five-point scale)” value in experiment [5] (250 g/Ha (*)) and in experiment [5] (1000 g/ha) was 0 in each case. For the same molecule, the “Pre-emergence Test AMARE, percentage damage caused to the plant (five-point scale)” value in [6] (250 g/Ha (*)) and in experiment [6] (1000 g/ha) was 0 throughout. Besides, the entries for the “percentage damage caused to the plant, SETFA (five-point scale)” value with Setaria faberi (SETFA) [7] (250 g/Ha) and in the experiment on Setaria faberi (SETFA) [7] (1000 g/ha) were 3 (3=41-60%) and 4 (4=61-80%), respectively. The “percentage damage caused to the plant, ECHCG (five-point scale)” value in experiment [8] (250 g/Ha) was 3 (3=41-60%); in experiment [8] (1000 g/ha), 4 (4=61-80%). Further, the “percentage damage caused to the plant, ZEAMX (five-point scale)” value is reported as 1 (1=0-20%) with Zea mays (ZEAMX) [9] (250 g/Ha) and 3 (3=41-60%) in the experiment on Zea mays (ZEAMX) [9] (1000 g/ha). For the same molecule, the “percentage damage caused to the plant, IPOHE (five-point scale)” value was 2 (2=21-40%) in [10] (250 g/Ha) and 1 (1=0-20%) in experiment [10] (1000 g/ha). Also, the “percentage damage caused to the plant, AMAPA (five-point scale)” value was 0 in [11] (250 g/Ha) and 1 (1=0-20%) in experiment [11] (1000 g/ha). The “percentage damage caused to the plant, AMARE (five-point scale)” value was 0 in experiment [12] (250 g/Ha) and 1 (1=0-20%) in [12] (1000 g/ha).

For `CCn1c(Cn2ccc(C(F)(F)F)n2)cc(=O)c(C(=O)O)c1-c1ccc(Cl)c(Cl)c1` [Compound 2, 2-(3,4-dichlorophenyl)-1-ethyl-4-oxo-6-[[3-(trifluoromethyl)pyrazol-1-yl]methyl]pyridine-3-carboxylic acid], the “Pre-emergence Test SETFA, percentage damage caused to the plant (five-point scale)” value in the experiment with Setaria faberi (SETFA) [1] (250 g/Ha (*)) and in the experiment with Setaria faberi (SETFA) [1] (1000 g/ha) was 5 (5=81-100%) each time. The “Pre-emergence Test ECHCG, percentage damage caused to the plant (five-point scale)” value in experiment [2] (250 g/Ha (*)) and in [2] (1000 g/ha) was 5 (5=81-100%) each time. The “Pre-emergence Test ZEAMX, percentage damage caused to the plant (five-point scale)” value with Zea mays (ZEAMX) [3] (250 g/Ha (*)) and with Zea mays (ZEAMX) [3] (1000 g/ha) was 4 (4=61-80%) each time. The “Pre-emergence Test IPOHE, percentage damage caused to the plant (five-point scale)” value in experiment [4] (250 g/Ha (*)) is given as 4 (4=61-80%); in experiment [4] (1000 g/ha), 3 (3=41-60%). Also, the results for the “Pre-emergence Test AMAPA, percentage damage caused to the plant (five-point scale)” value in experiment [5] (250 g/Ha (*)) and in [5] (1000 g/ha) were 0 and 3 (3=41-60%), respectively. Further, the “Pre-emergence Test AMARE, percentage damage caused to the plant (five-point scale)” value in experiment [6] (250 g/Ha (*)) was 1 (1=0-20%); in experiment [6] (1000 g/ha), 3 (3=41-60%). Also, the “percentage damage caused to the plant, SETFA (five-point scale)” value in the experiment on Setaria faberi (SETFA) [7] (250 g/Ha) was 4 (4=61-80%); in the experiment with Setaria faberi (SETFA) [7] (1000 g/ha) it was 5 (5=81-100%). Moreover, the “percentage damage caused to the plant, ECHCG (five-point scale)” value in experiment [8] (250 g/Ha) and in experiment [8] (1000 g/ha) was 4 (4=61-80%) throughout. The “percentage damage caused to the plant, ZEAMX (five-point scale)” value with Zea mays (ZEAMX) [9] (250 g/Ha) and with Zea mays (ZEAMX) [9] (1000 g/ha) was 4 (4=61-80%) in each case. Further, the “percentage damage caused to the plant, IPOHE (five-point scale)” value in experiment [10] (250 g/Ha) is reported as 3 (3=41-60%); in experiment [10] (1000 g/ha), 4 (4=61-80%). In addition, the “percentage damage caused to the plant, AMAPA (five-point scale)” value is 3 (3=41-60%) in [11] (250 g/Ha) and 4 (4=61-80%) in experiment [11] (1000 g/ha). In addition, the “percentage damage caused to the plant, AMARE (five-point scale)” value in experiment [12] (250 g/Ha) is 3 (3=41-60%); in experiment [12] (1000 g/ha), 4 (4=61-80%).

As for `CCOC(=O)c1c(-c2ccc(Cl)c(Cl)c2)n(CC)c(Cn2ccc(Cl)n2)cc1=O` [Compound 3, ethyl 6-[(3-chloropyrazol-1-yl)methyl]-2-(3,4-dichlorophenyl)-1-ethyl-4-oxo-pyridine-3-carboxylate], the “Pre-emergence Test SETFA, percentage damage caused to the plant (five-point scale)” value is 1 (1=0-20%) in the experiment on Setaria faberi (SETFA) [1] (250 g/Ha (*)) and 5 (5=81-100%) in the experiment with Setaria faberi (SETFA) [1] (1000 g/ha). Also, the entries for the “Pre-emergence Test ECHCG, percentage damage caused to the plant (five-point scale)” value in experiment [2] (250 g/Ha (*)) and in experiment [2] (1000 g/ha) were 1 (1=0-20%) and 4 (4=61-80%), respectively. Besides, the “Pre-emergence Test ZEAMX, percentage damage caused to the plant (five-point scale)” value with Zea mays (ZEAMX) [3] (250 g/Ha (*)) and in the experiment on Zea mays (ZEAMX) [3] (1000 g/ha) was 0 throughout. The “Pre-emergence Test IPOHE, percentage damage caused to the plant (five-point scale)” value in experiment [4] (250 g/Ha (*)) and in experiment [4] (1000 g/ha) was 0 each time. In addition, the “Pre-emergence Test AMAPA, percentage damage caused to the plant (five-point scale)” value in experiment [5] (250 g/Ha (*)) and in experiment [5] (1000 g/ha) was 0 in each case. For the same molecule, the “Pre-emergence Test AMARE, percentage damage caused to the plant (five-point scale)” value in experiment [6] (250 g/Ha (*)) was 0; in experiment [6] (1000 g/ha), 1 (1=0-20%). For the same molecule, the figures for the “percentage damage caused to the plant, SETFA (five-point scale)” value with Setaria faberi (SETFA) [7] (250 g/Ha) and in the experiment on Setaria faberi (SETFA) [7] (1000 g/ha) were 2 (2=21-40%) and 3 (3=41-60%), respectively. Moreover, the results for the “percentage damage caused to the plant, ECHCG (five-point scale)” value in [8] (250 g/Ha) and in experiment [8] (1000 g/ha) were 1 (1=0-20%) and 3 (3=41-60%), respectively. Besides, the results for the “percentage damage caused to the plant, ZEAMX (five-point scale)” value in the experiment on Zea mays (ZEAMX) [9] (250 g/Ha) and in the experiment with Zea mays (ZEAMX) [9] (1000 g/ha) were 0 and 2 (2=21-40%), respectively. Besides, the “percentage damage caused to the plant, IPOHE (five-point scale)” value in [10] (250 g/Ha) is on record as 4 (4=61-80%); in experiment [10] (1000 g/ha), 2 (2=21-40%). For the same molecule, the results for the “percentage damage caused to the plant, AMAPA (five-point scale)” value in experiment [11] (250 g/Ha) and in experiment [11] (1000 g/ha) were 1 (1=0-20%) and 2 (2=21-40%), respectively. Further, the “percentage damage caused to the plant, AMARE (five-point scale)” value in experiment [12] (250 g/Ha) and in experiment [12] (1000 g/ha) was 1 (1=0-20%) throughout.

With `CCOC(=O)c1c(C)cnn1Cc1cc(=O)c(C(=O)O)c(-c2ccc(Cl)c(Cl)c2)n1CC` [Compound 122, 2-(3,4-dichlorophenyl)-6-[(5-ethoxycarbonyl-4-methyl-pyrazol-1-yl)methyl]-1-ethyl-4-oxo-pyridine-3-carboxylic acid], the “Pre-emergence Test SETFA, percentage damage caused to the plant (five-point scale)” value with Setaria faberi (SETFA) [1] (250 g/Ha (*)) is 1 (1=0-20%). Besides, in experiment [2] (250 g/Ha (*)), the “Pre-emergence Test ECHCG, percentage damage caused to the plant (five-point scale)” value was 0. The “Pre-emergence Test ZEAMX, percentage damage caused to the plant (five-point scale)” value with Zea mays (ZEAMX) [3] (250 g/Ha (*)) turned out to be 0. For the same molecule, the “Pre-emergence Test IPOHE, percentage damage caused to the plant (five-point scale)” value in experiment [4] (250 g/Ha (*)) is 0. The “Pre-emergence Test AMAPA, percentage damage caused to the plant (five-point scale)” value in experiment [5] (250 g/Ha (*)) is 1 (1=0-20%). Further, the “Pre-emergence Test AMARE, percentage damage caused to the plant (five-point scale)” value in [6] (250 g/Ha (*)) is on record as 0.
